Here are results for ten compounds from ChEMBL document CHEMBL1201862, “PubChem BioAssay data set” (2004).

The source made the active and inactive calls.

The target in test [1] is T1, Heat shock factor protein 1 (Mus musculus, UniProt P38532).
T1 sequence (P38532 whole entry): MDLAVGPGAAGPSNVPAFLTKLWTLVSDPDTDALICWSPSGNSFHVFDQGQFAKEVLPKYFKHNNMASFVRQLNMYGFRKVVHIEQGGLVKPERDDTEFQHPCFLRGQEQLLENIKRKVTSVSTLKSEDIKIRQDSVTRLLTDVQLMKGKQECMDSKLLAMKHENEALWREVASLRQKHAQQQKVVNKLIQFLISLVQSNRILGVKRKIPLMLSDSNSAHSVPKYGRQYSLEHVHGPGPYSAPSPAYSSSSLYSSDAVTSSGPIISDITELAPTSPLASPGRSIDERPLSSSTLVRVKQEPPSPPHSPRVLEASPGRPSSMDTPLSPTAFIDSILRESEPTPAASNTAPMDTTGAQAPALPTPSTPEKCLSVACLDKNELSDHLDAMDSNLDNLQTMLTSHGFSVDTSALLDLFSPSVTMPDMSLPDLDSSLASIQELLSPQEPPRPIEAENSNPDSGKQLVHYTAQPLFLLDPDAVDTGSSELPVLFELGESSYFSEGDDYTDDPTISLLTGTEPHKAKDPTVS
Nature of the test: decrease of HSF1-responsive luciferase luminescence – cell-based, NIH3T3, dose retest, confirmation (AID 2382).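 Note: NIH3T3 fibroblasts with HSF1-driven luciferase reporter stressed by proteasome inhibitor MG132; luminescence from HSF1-driven luciferase expression after 8 hours of MG132 stress.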 It is filed as functional.

Test [2] in a line: Luminescence-based counterscreen assay for KLF5 inhibitors: dose response cell-based high throughput screening assay to identify cytotoxic compounds using the IEC-6 intestinal epithelial cell line. [Related pubchem assays: 1700 (Primary screen.), 1834 (Confirmation screen.), 1858 (Summary AID.), 1905 (Counterscreen.)]. It is filed as functional.
The target of a further test is Paired box protein Pax-8 (Homo sapiens, UniProt Q06710). Nature of the test: PAX8 transcriptional activity inhibition in RMG-I – RMG-I cells, luciferase, cherry-pick, dose response (AID 687027).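 Note: luciferase reporter driven by Pax8 target thyroperoxidase promoter measured by SteadyGlo luminescence.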 It is filed as functional, cell-based.
Test [3] in a line: microbe, parasite or virus in culture. It is filed as functional. The settings on record: Mycobacterium tuberculosis.
Test [4] is described as follows: viability loss in HEK293 cells – cell-based, plate reader, cherry-picked samples, cytotoxicity control, dose response (AID 743446). It is filed as functional.
The nature of test [5]: blockade of melanocortin 4 receptor signaling – cell-based, plate reader, cherry pick, counter-screen for LGR2 antagonist project, dose response (AID 743444).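 Note: transfected HEK 293 cells stimulated with alpha-MSH peptide; potency of inhibitors of the alpha-MSH evoked signal.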 It is filed as functional.
Test [6] deals with HEK293. The experiment in a line: EBV LMP1 TES2 canonical NF-kB signalling blockers – cell-based, HEK293, luciferase, cherry-pick, dose response (AID 588343). It is filed as functional. The note with it: Homo sapiens.
A short description of test [7]: general cell-killing toxicity readout – plate reader, dry powder samples, cytotoxicity control for PAX8 inhibitor project, dose response (AID 743021). It is filed as functional, cell-based.
The nature of test [8]: blockers of bursicon-stimulated LGR2 cAMP reporter – cell-based, HEK293, CRE-luciferase reporter, cherry pick, set 2, dose response (AID 743343).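 Note: transfected cells were stimulated with diluted bursicon conditioned medium after compound addition.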 It is filed as functional.
Test [9] can be described thus: CMV-driven luciferase expression suppression in HEK293 – cell-based, luminescence, dry powder, counter-screen for Pax8 inhibitor project, dose response (AID 743020). It is filed as functional.
Test [10] can be described thus: A549 cell cytotoxicity, dose response, cytotoxicity control, plate reader, cherry-pick, antagonist series (AID 743412). It is filed as functional, cell-based.
A short description of test [11]: HEK-293T cell viability reduction – luminescence, B-cell screen hits, cytotoxicity control for BCR NF-kB inhibitor project, dose response (AID 489021).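 Note: HEK-293T cells carrying an NF-kB luciferase reporter; cells exposed to compound for about 14 hours before viability readout.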 It is filed as functional, cell-based.
Test [12] can be described thus: toxicity toward HepG2 liver cells – cell-based, plate reader, cherry-pick, antagonist series, cytotoxicity control, dose response (AID 743416). It is filed as functional.
A further test has as its target Cytochrome P450 3A4 (Homo sapiens, UniProt P08684). The note with it: Potency.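 Note: confirmatory qHTS run detecting inhibitors and substrates of CYP3A4.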
For test [13], the target named is Lysosomal acid glucosylceramidase (Homo sapiens, UniProt P04062). Nature of the test: Dose response cell-based high throughput screening assay to identify enhancers of beta-glucosidase activity. [Related pubchem assays: 784 ]. It is filed as functional.
A further test in a line: cells. It is filed as functional.
A short description of test [14]: A Cell Based Secondary Assay To Explore Cytotoxicity of Compounds that Sensitize Mycobacterium Tuberculosis to Beta-Lactam Antibiotics. It is filed as functional.
Test [15] concerns the target T2, Apoptotic protease-activating factor 1 (Homo sapiens, UniProt O14727).
T2 sequence (O14727 whole entry): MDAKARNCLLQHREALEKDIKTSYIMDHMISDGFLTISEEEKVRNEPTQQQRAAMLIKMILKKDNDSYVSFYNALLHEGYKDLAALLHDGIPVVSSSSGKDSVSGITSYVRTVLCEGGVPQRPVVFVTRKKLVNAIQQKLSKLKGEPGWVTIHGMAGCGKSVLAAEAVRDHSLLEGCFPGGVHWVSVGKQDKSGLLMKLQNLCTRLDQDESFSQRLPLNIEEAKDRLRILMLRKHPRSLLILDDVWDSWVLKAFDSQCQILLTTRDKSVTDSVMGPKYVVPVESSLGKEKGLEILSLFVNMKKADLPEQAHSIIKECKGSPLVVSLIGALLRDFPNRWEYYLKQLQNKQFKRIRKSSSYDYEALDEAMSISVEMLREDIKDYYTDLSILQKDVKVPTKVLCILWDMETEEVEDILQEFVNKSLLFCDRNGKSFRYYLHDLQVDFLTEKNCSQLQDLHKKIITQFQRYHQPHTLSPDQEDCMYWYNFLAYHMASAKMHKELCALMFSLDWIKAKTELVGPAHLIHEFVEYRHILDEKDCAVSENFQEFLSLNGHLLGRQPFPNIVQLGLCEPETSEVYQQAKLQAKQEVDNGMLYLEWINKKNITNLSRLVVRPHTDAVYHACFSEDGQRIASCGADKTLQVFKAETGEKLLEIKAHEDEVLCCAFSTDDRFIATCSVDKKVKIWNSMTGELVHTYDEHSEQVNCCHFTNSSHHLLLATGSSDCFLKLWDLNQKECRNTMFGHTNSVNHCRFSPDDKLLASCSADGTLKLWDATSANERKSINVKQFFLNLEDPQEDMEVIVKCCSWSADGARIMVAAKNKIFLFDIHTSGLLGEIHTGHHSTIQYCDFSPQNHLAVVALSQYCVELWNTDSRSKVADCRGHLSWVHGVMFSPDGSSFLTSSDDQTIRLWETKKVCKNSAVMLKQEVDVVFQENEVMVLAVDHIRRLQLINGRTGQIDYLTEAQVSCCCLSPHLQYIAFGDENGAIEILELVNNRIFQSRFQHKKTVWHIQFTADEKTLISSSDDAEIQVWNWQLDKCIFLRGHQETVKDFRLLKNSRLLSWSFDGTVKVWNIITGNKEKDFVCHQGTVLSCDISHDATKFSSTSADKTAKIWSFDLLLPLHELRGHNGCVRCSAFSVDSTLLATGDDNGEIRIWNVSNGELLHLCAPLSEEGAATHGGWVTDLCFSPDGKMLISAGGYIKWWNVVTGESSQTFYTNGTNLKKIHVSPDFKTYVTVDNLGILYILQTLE
It is filed as functional.

Test [16] concerns the target Induced myeloid leukemia cell differentiation protein Mcl-1 (Homo sapiens, UniProt Q07820). It is filed as functional.
In test [17] the target is T3, Rac GTPase-activating protein 1 (Homo sapiens, UniProt Q9H0H5).
T3 sequence (Q9H0H5 whole entry): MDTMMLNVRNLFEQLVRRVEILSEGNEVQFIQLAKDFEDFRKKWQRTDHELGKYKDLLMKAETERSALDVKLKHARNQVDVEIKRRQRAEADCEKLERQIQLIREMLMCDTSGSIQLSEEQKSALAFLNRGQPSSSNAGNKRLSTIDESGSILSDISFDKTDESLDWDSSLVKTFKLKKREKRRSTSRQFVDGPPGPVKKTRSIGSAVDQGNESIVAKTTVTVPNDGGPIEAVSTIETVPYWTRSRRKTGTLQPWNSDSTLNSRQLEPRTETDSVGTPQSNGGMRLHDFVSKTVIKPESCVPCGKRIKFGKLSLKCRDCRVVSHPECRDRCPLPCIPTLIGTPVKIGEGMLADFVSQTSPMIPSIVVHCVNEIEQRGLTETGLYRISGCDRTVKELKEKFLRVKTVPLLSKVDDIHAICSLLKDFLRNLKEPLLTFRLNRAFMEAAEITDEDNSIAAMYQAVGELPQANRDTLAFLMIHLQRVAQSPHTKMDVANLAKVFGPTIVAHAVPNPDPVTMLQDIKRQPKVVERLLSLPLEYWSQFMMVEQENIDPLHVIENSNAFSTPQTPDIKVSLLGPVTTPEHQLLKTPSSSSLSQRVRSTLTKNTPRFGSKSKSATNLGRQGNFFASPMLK
The experiment in a line: blockers of MgcRacGAP-driven Rac1 GTP hydrolysis – biochemical, ADP Hunter fluorescence, primary and confirmatory, confirmation (AID 624330). It is filed as functional.

A short description of test [18]: mitochondrial function rescue without frataxin homolog – Friedreich's ataxia, plus single-dose screen, dose response (AID 1465).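 Note: yeast depleted of Yfh1p frataxin homolog grown on glycerol needing respiration; WST-1 tetrazolium dye reduction as measure of cellular dehydrogenase metabolic activity.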 It is filed as functional.
Test [19] concerns HEK293. Nature of the test: Fluorescence-based counterscreen for potentiators or agonists of NPY-Y2: cell-based high-throughput dose response assay to identify inhibitors of cyclic nucleotide gated ion channel (CNGC) activity. In this assay, the parental HEK293 cell line transfected with a cyclic-nucleotide gated ion channel (CNGC)-based cAMP sensor is used to measure inhibition of isoproterenol-induced CNGC activity by test compound. It is filed as functional. The note with it: Homo sapiens.

Test [20] deals with T4, Neuropeptide Y receptor type 1 (Homo sapiens, UniProt P25929).
T4 sequence (P25929 whole entry): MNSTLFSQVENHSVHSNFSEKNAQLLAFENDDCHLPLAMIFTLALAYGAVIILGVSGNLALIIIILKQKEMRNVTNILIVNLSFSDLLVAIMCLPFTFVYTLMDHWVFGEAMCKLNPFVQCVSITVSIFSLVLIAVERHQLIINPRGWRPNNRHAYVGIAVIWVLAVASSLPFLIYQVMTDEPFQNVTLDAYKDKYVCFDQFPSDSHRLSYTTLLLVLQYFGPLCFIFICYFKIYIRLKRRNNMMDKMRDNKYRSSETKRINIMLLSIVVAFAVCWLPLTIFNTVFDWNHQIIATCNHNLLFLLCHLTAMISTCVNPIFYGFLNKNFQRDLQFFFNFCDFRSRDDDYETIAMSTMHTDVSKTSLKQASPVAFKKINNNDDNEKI
Nature of the test: Fluorescence-based counterscreen for agonists of NPY-Y2: cell-based high-throughput dose response assay for agonists of NPY-Y1. It is filed as functional.

Test [21] concerns the target T5, Neuropeptide Y receptor type 2 (Homo sapiens, UniProt P49146).
T5 sequence (P49146 whole entry): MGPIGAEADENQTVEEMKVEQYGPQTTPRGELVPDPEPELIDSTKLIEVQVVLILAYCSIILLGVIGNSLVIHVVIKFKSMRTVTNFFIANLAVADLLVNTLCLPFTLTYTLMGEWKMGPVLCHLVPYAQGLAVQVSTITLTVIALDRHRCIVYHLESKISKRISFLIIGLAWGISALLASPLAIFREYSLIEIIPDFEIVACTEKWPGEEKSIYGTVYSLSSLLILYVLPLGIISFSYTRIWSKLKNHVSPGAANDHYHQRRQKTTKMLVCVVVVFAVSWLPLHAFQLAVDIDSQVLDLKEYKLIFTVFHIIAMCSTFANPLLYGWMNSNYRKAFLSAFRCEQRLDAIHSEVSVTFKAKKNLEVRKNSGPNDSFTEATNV
The experiment in a line: Fluorescence-based cell-based high-throughput dose response assay for agonists of NPY-Y2. [Related pubchem assays: 1703 (Screening assay (CNGC inhibitors).), 1359 (Screening assay (NPY-Y2 potentiators or agonists).), 1304 (Screening assay (NPY-Y1 potentiators or agonists).), 1710 (Screening assay (NPY-Y2 agonists).), 1791 (Summary AID.)]. It is filed as functional.

Chain of Cytochrome P450 3A4 (P08684 whole entry): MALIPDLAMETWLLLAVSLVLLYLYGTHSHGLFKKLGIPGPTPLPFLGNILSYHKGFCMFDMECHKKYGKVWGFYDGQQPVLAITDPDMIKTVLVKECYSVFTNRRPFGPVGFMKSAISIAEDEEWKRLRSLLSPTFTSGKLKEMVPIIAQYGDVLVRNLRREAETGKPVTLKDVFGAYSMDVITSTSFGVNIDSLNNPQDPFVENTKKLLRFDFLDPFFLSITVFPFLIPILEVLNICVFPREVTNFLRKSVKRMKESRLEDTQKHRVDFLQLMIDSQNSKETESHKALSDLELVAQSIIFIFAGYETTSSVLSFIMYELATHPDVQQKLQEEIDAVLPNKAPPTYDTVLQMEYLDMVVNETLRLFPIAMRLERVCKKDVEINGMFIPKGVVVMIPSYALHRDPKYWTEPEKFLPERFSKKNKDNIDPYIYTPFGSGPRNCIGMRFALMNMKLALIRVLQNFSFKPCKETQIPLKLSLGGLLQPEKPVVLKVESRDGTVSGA
Chain of Lysosomal acid glucosylceramidase (P04062 whole entry): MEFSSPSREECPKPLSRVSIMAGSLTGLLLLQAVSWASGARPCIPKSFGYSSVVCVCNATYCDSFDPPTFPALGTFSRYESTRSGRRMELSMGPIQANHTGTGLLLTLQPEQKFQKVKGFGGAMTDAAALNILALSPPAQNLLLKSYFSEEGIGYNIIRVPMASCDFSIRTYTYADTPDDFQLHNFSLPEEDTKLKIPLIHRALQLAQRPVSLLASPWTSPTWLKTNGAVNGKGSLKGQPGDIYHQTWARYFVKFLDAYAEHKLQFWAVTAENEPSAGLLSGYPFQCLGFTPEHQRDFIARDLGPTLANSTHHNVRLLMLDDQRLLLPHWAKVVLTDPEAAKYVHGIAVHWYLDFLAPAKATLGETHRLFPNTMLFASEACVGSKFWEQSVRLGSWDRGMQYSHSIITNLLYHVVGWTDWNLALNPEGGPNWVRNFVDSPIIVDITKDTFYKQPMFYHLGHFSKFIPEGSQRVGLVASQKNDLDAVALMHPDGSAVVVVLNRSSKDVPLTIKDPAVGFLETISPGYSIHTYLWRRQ
Chain of Paired box protein Pax-8 (Q06710 whole entry): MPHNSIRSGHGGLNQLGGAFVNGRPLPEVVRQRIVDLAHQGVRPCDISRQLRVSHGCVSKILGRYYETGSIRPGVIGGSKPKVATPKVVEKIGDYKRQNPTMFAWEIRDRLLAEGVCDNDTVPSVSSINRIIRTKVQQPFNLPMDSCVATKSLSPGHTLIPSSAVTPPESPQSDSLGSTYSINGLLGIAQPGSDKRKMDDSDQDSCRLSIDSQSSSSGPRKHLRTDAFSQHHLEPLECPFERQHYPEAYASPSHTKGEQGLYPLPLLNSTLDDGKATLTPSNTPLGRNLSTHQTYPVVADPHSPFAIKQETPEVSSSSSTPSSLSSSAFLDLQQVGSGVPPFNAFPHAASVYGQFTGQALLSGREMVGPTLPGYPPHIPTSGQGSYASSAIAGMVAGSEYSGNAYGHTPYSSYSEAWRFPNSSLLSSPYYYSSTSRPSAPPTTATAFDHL
Chain of Induced myeloid leukemia cell differentiation protein Mcl-1 (Q07820 whole entry): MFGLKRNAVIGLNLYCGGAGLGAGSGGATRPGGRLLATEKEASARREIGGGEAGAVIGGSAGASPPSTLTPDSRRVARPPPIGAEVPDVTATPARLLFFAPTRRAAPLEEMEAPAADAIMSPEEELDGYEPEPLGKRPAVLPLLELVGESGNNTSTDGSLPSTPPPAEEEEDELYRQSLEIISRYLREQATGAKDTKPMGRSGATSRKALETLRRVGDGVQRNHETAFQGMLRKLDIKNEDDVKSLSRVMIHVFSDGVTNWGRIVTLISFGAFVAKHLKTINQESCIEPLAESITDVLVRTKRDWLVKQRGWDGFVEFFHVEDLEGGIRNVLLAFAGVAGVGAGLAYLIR

With `COc1ccc(OCc2cccc(C(=O)Nn3cc([N+](=O)[O-])cn3)c2)cc1`, the EC50 in test [1] was 4.92 µM (active). The figures for the IC50 in [2] and in test [11] were > 39.8 µM (not active) and > 80 µM (inactive), respectively. The AC50 at Paired box protein Pax-8 was 1.13 µM (active); in [4], > 52 µM (inactive); in [5], 0.462 µM (active); in the test on HEK293 [6], 0.709 µM (active); in test [7], 10.1 µM (active); in test [8], 0.407 µM (active). Moreover, the results for the AC50 in test [9], in test [10] and in test [12] were 21 µM (active), > 52 µM (inactive) and 34.1 µM (active), respectively. Besides, in test [3], the CC50 was > 40 µM (active).

In the case of `CCC(C(=O)O)C1CCC(C)C(C(C)C(O)C(C)C(=O)C(CC)C2OC3(C=CC(O)[C@@]4(CC[C@](C)(C5CC[C@@](O)(CC)C(C)O5)O4)O3)C(C)CC2C)O1` (stereo not given in full), the AC50 at Cytochrome P450 3A4 was 39.8 µM (inconclusive).

With `CCOC(=O)c1c(C)n(C)c2ccc(OC(C)C(=O)OC)cc12` (stereo not given), the 50% effective concentration (EC50) in [13] is on record as > 10 µM (not active). Besides, the IC50 in “cells” is 20.9 µM (active).

As to `Cc1nn(-c2ccccc2)c(O)c1/C=N/NC(=O)c1cccc([N+](=O)[O-])c1`, the CC50 in test [14] is 7.57 µM (active). The concentration for half-maximal inhibition (IC50) in test [15] was 13.2 µM (active).

Regarding `CC(C)CC(=O)N1CCN(c2ccc([N+](=O)[O-])c(NCc3ccccc3)c2)CC1`, in test [14], the CC50 is > 40 µM (active).

Regarding `COCc1nnc(NC(=O)c2ccc(S(=O)(=O)N(C)C3CCCCC3)cc2)o1`, the concentration giving a half-maximal response (EC50) in test [13] is given as > 10 µM (not active).

As for `CC1=NN(C(N)=S)C(=O)C1N=Nc1ccc(O)cc1` (stereo not given), the results for the half-maximal inhibitory concentration (IC50) in [16] and in test [17] were 9.66 µM (active) and 16.6 µM (active), respectively. Besides, the EC50 in [18] is > 100 µM (active).

With `CN(Cc1ccccc1)C(=O)CCNC(=O)Cn1cnc2ccccc2c1=O`, the EC50 (in the test with HEK293 [19]; in [20]; in [21]) was > 35.4 µM (not active) throughout.

For `COC(=O)[C@@H]1C[C@@]2(O)[C@H](O)[C@H](O)[C@H](O)C[C@H]2N1Cc1cc(OC)cc(OC)c1`, on Cytochrome P450 3A4, the AC50 is 15.8 µM (inconclusive).

With `Cc1ccccc1OCC(O)CN1CCC(C)CC1` (stereo not given), the 50% effective concentration (EC50) with HEK293 [19] was 4.67 µM (active); in [20], 21.8 µM (not active); in test [21], 33.3 µM (not active).
